Results as given in the NIST ThermoML archive (doi:10.1016/j.jct.2014.08.018).
Several values for one entry are separate records, joined by “and”; a condition that tells them apart may be missing. Equal values may be shown once.

Conditions: 101.33 kPa, Liquid; for mass density: Vibrating tube method; for viscosity: Capillary tube (Ostwald / Ubbelohde) method

CCCCCCCCCCCCCC[P+](CCCCCC)(CCCCCC)CCCCCC.N#C[N-]C#N [tetradecyl(trihexyl)phosphonium dicyanamide]
Conditions	mass density [kg/m3]	viscosity [mPa·s]
288.15 K	903.4	–
288.17 K	–	665.15
288.31 K	–	664.13
298.07 K	–	362.32
298.11 K	–	362.9
298.15 K	897.6	–
308.05 K	–	210.07
308.09 K	–	210.09
308.15 K	891.9	–
318.01 K	–	129.78
318.06 K	–	129.77
318.15 K	886.3	–
328.03 K	–	83.95
328.08 K	–	83.81
328.15 K	880.7	–

CCCCCC[n+]1ccn(C)c1.O=S(=O)([N-]S(=O)(=O)C(F)(F)F)C(F)(F)F
Conditions	mass density [kg/m3]	viscosity
288.15 K	1381.3	–
288.19 K	–	115.89 mPa·s and 115.81 mPa·s
298.12 K	–	69.47 mPa·s and 69.62 mPa·s
298.15 K	1372.2	–
308.05 K	–	44.87 mPa·s
308.11 K	–	44.86 mPa·s
308.15 K	1363	–
317.95 K	–	30.77 mPa·s
318.07 K	–	30.77 mPa·s
318.15 K	1353.9	–
328.08 K	–	21.92 mPa·s and 21.92 mPa·s
328.15 K	1344.9	–

CCCCn1cc[n+](C)c1.N#CN=C=[N-] [1-butyl-3-methylimidazolium dicyanamide]
Conditions	mass density [kg/m3]	viscosity
288.15 K	1066.9	–
288.17 K	–	45.86 mPa·s
288.22 K	–	45.82 mPa·s
298.11 K	–	30.15 mPa·s and 30.15 mPa·s
298.15 K	1060.5	–
308.05 K	–	20.91 mPa·s
308.12 K	–	20.94 mPa·s
308.15 K	1054.2	–
318.05 K	–	15.21 mPa·s
318.06 K	–	15.19 mPa·s
318.15 K	1047.9	–
328.05 K	–	11.56 mPa·s
328.08 K	–	11.55 mPa·s
328.15 K	1041.7	–
